Source: patent US12595357B2, “Black knot melanin—a super-additive with UV absorbing and antioxidant properties” (The University of Akron, priority 2021, dated 2026)

Test: DPPH assay for antioxidant activity (radical scavenging)
Type: biochemical
Details: 0.1 mM DPPH solution, absorbance at 517 nm; masses greater than or equal to 40 μg
Experimental: 2,2-diphenyl-1-(2,4,6-trinitrophenyl) hydrazyl (DPPH) radical scavenging activity of BKF melanin was measured according to the procedure described in the literature. […] Afterwards, the UV-vis absorbance spectra were collected to monitor the decrease in the absorbance at 517 nm due to quenching of DPPH radical by the BKF melanin. Similar volumes of BKF melanin solution were added to pure ethanol (instead of 0.1 mM DPPH solution) to measure the absorbance of BKF melanin itself. Afterwards, the scavenging activity (or antioxidant activity) [I] was calculated using Equation 1, where Ac is the absorbance of DPPH solution without any BKF melanin, Ai is the absorbance of DPPH solution mixed with varying amounts of BKF melanin, and Aj is the absorbance of BKF melanin itself without DPPH solution. […]
The antioxidant activity of BKF melanin was investigated using the DPPH assay described above. The scavenging activity was determined by monitoring the decrease in absorbance of DPPH at 517 nm, since the DPPH is reduced through an electron transfer from the antioxidant material. […] As the ascorbic acid concentration increases from 0 to 60 μg, the absorbance at 517 nm decreases along with visual change in color from purple to yellow. The antioxidant activity (%) calculated using Equation 1 is plotted as a function of ascorbic acid mass in FIG. 3B. […]

For `O=C1O[C@H]([C@@H](O)CO)C(O)=C1O` [ascorbic acid], the “antioxidant activity (%), saturated value” was roughly 90%.
